Test results taken from paper PMC9029360, “Cyclooxygenase-Inhibiting Platinum(IV) Prodrugs with Potent Anticancer Activity” (Pharmaceutics, 2022).
Read-outs that look alike come from different tables or passages of the source.

Columns and labels:
[1] = tested on: HT29 colon cancer cell line; assay: In vitro cytotoxicity MTT assay, HT29 colon; assay type: cell-based; conditions: n = 3
U87 glioblastoma [2] = assay: In vitro cytotoxicity MTT assay, U87 glioblastoma; assay type: cell-based; conditions: 72 h drug exposure, n = 3
MCF-7 breast [3] = assay: In vitro cytotoxicity MTT assay, MCF-7 breast; assay type: cell-based; conditions: n = 3
A2780 ovarian [4] = assay: In vitro cytotoxicity MTT assay, A2780 ovarian; assay type: cell-based; conditions: 72 h drug exposure, n = 3
H460 lung [5] = assay: In vitro cytotoxicity MTT assay, H460 lung; assay type: cell-based; conditions: n = 3
A431 skin [6] = assay: In vitro cytotoxicity MTT assay, A431 skin; assay type: cell-based; conditions: n = 3
[7] = tested on: Du145 prostate cancer cell line; assay: In vitro cytotoxicity MTT assay, Du145 prostate; assay type: cell-based; conditions: n = 3
BE2-C neuroblastoma [8] = assay: In vitro cytotoxicity MTT assay, BE2-C neuroblastoma; assay type: cell-based; conditions: 72 h drug exposure, n = 3
SJ-G2 glioblastoma [9] = assay: In vitro cytotoxicity MTT assay, SJ-G2 glioblastoma; assay type: cell-based; conditions: 72 h drug exposure, n = 3
MIA pancreas [10] = assay: In vitro cytotoxicity MTT assay, MIA pancreas; assay type: cell-based; conditions: 72 h drug exposure, n = 3
[11] = tested on: MCF10A breast cell line (non-tumour derived); assay: In vitro cytotoxicity MTT assay, non-tumour MCF10A breast; assay type: cell-based; conditions: MCF10A (non-cancerous), 72 h drug exposure, n = 3
[12] = tested on: cisplatin-resistant ADDP ovarian (subclone of A2780 cell line); assay: In vitro cytotoxicity MTT assay, cisplatin-resistant ADDP ovarian; assay type: cell-based; conditions: ADDP (cisplatin-resistant), MTT, 72 h drug exposure, n = 3
[13] = Lipophilicity by RP-HPLC (log kw); assay type: physicochemical; conditions: capacity factor extrapolated to 100% water
Procedure: HPLC experiments were executed on an Agilent (Melbourne, Australia) Technologies 1260 Infinity instrument equipped with a Phenomenex (Sydney, Australia) Onyx^TM Monolithic C18 reverse phase column (100 × 4.6 mm, 130 Å). The mobile phase was comprised of 0.06% TFA in water (solvent A) and 0.06% TFA in an acetonitrile-water mixture (9:1) (solvent B). A sample injection volume of 10 µL was used at a flow rate of 1 mL/min and eluted over a gradient of 0–100% for 15 min. A PDA was used to detect the eluting peaks at 254 nm. Lipophilicity experiments to determine logkw values were undertaken following previously published methods. Rather than a gradient, different isocratic ratios ranging from 28–56% of solvent B were employed and the retention times measured for each complex. Potassium iodide was used as an external dead volume marker to determine the dead time of the column. The following equation was used to calculate the capacity factors:(1) k=tr−t0/t0 where k is the capacity factor, tr is the retention time of the analyte, and t0 is the dead time. Following this, log k was plotted against the percentage of ACN. Five different concentrations of ACN were used to produce a linear plot comprised of R^2 > 0.99. This graph produced the following equation:(2) logk=Sφ+logkw where S is the slope, φ is the % ACN, and the y-intercept, represented as logkw , is the capacity factor of the compound in 100% water.
Lipophilicity studies were carried out to determine the logkw of each complex. This was ascertained through a RP-HPLC based approach whereby complexes were eluted at several isocratic ratios. In turn, retention times were employed as in Equation (1), where the capacity factor (k) was calculated. The log k value at each ratio was then plotted against the percentage of the organic solvent used in solvent B, producing a linear equation that allowed for logkw to be extrapolated (Figure S43). The logkw value represents the retention factor in a 100% aqueous solution; thus, higher values indicate more lipophilic compounds. While this method for determining lipophilicity is slightly different from the shake-flask method, it has been used previously to compare a series of complexes that are structurally similar and is fitting for this group of complexes.

[14] = Preliminary NMR reduction study with ascorbic acid; assay type: physicochemical; conditions: D2O with 10X PBS, 37 °C
Procedure: Given that 1–4 were designed on the premise of functionating as prodrugs, it is anticipated that these complexes be reduced to platinum(II) and release their respective axial ligands, which will allow each component to exert its activity. To explore this possibility, preliminary NMR reduction studies were undertaken for 3. The sample was prepared in D2O with 10X PBS before ascorbic acid was added, and the sample was monitored by ^1H NMR at 37 °C. After the addition of ascorbic acid, resonances corresponding to the platinum(II) species appeared, with the intensities increasing over time, while the peaks correlating to platinum(IV) species decreased (Figure 5). Following this, ^195Pt NMR was carried out in order to confirm that the platinum(II) species remained intact.

[15] = tested on: HT29 colon cancer cell line; conditions: MTT, 72 h, ref [2] Macias et al., Eur. J. Chem. 2015; cited from earlier work
U87 glioblastoma [16] = conditions: MTT, 72 h, ref [2] Macias et al., Eur. J. Chem. 2015; cited from earlier work
MCF-7 breast [17] = conditions: MTT, 72 h, ref [2] Macias et al., Eur. J. Chem. 2015; cited from earlier work
A2780 ovarian [18] = conditions: MTT, 72 h, ref [2] Macias et al., Eur. J. Chem. 2015; cited from earlier work
H460 lung [19] = conditions: MTT, 72 h, ref [2] Macias et al., Eur. J. Chem. 2015; cited from earlier work
A431 skin [20] = conditions: MTT, 72 h, ref [2] Macias et al., Eur. J. Chem. 2015; cited from earlier work
[21] = tested on: Du145 prostate cancer cell line; conditions: MTT, 72 h, ref [2] Macias et al., Eur. J. Chem. 2015; cited from earlier work
BE2-C neuroblastoma [22] = conditions: MTT, 72 h, ref [2] Macias et al., Eur. J. Chem. 2015; cited from earlier work
SJ-G2 glioblastoma [23] = conditions: MTT, 72 h, ref [2] Macias et al., Eur. J. Chem. 2015; cited from earlier work
MIA pancreas [24] = conditions: MTT, 72 h, ref [2] Macias et al., Eur. J. Chem. 2015; cited from earlier work
[25] = tested on: cisplatin-resistant ADDP ovarian (subclone of A2780 cell line); conditions: MTT, 72 h, ref [2] Macias et al., Eur. J. Chem. 2015; cited from earlier work

Molecule | GI50 (U87 glioblastoma [2]) [nM] | GI50 (SJ-G2 glioblastoma [9]) [nM] | GI50 (MIA pancreas [10]) [nM] | GI50 ([1]; 72 h drug exposure) [nM] | GI50 (MCF-7 breast [3]; 72 h drug exposure) [nM] | GI50 (A2780 ovarian [4]) [nM] | GI50 (H460 lung [5]; 72 h drug exposure) [nM] | GI50 (A431 skin [6]; 72 h drug exposure) [nM] | GI50 ([7]; 72 h drug exposure) [nM] | GI50 (BE2-C neuroblastoma [8]) [nM] | GI50 [11] [nM] | GI50 [12] [nM] | Log kw [13] | also measured
COc1ccc2c(c1)c(CC(=O)O)c(C)n2C(=O)c1ccc(Cl)cc1 [Indomethacin, indomethacin] | > 50000 | > 50000 | > 50000 | – | – | – | – | – | – | – | – | – | – | GI50 ([1]; Homo sapiens, HT-29, 72 h drug exposure): > 50000 nM; GI50 (MCF-7 breast [3]; Homo sapiens, MCF7, 72 h drug exposure): > 50000 nM; GI50 (A2780 ovarian [4]; Homo sapiens): 5700 ± 800 nM; GI50 (H460 lung [5]; Homo sapiens, NCI-H460, 72 h drug exposure): > 50000 nM; GI50 (A431 skin [6]; Homo sapiens, A-431, 72 h drug exposure): > 50000 nM; GI50 ([7]; Homo sapiens, DU-145, 72 h drug exposure): > 50000 nM; GI50 (BE2-C neuroblastoma [8]; Homo sapiens, BE(2)-C): > 50000 nM; GI50 ([11]; Homo sapiens, MCF-10A): > 50000 nM; GI50 ([12]; Homo sapiens, A2780): > 50000 nM
CC(=O)Oc1ccccc1C(=O)[O-].Cc1c(C)c2cccnc2c2ncccc12.N[C@H]1CCCC[C@@H]1N.O=[N+]([O-])[O-].O=[N+]([O-])[O-].[OH-].[Pt+4] [compound 4, [Pt(56Me2Phen)(SSDACH)(Aspirin)(OH)](NO3)2] | 24 | 63 ± 6 | 8 ± 1 | 7 ± 1 | 36 ± 10 | 22 | 15 ± 1 | 31 | 3 | 98 ± 21 | 9 ± 2 | 12 | 0.65 | –
N[C@H]1CCCC[C@@H]1N.[Cl-].[Cl-].[Pt+2].c1cnc2c(c1)ccc1cccnc12 [PHENSS(II)] | 1200 ± 340 | 440 ± 55 | 240 ± 22 | 87 ± 27 | 250 ± 41 | 290 ± 37 | 300 ± 32 | 340 ± 100 | 110 ± 27 | 390 ± 60 | 240 ± 60 | 230 ± 49 | – | –
Cc1c(C)c2cccnc2c2ncccc12.N[C@H]1CCCC[C@@H]1N.O=[N+]([O-])[O-].O=[N+]([O-])[O-].[OH-].[OH-].[Pt+4] [56MESS(IV)] | 190 ± 23 | 210 ± 45 | 43 ± 2.5 | 36 ± 7 | 480 ± 140 | 56 ± 7.1 | 190 ± 150 | 120 ± 22 | 15 ± 2.6 | 240 ± 22 | 61 ± 7.3 | 170 ± 120 | – | –
[Pt(Phen)(SSDACH)(Aspirin)(OH)](NO3)2 [compound 3] | 600 ± 60 | 360 ± 60 | 160 ± 30 | 140 ± 10 | 390 ± 80 | 260 ± 30 | 350 ± 20 | 670 ± 100 | 140 ± 10 | 620 ± 90 | 210 ± 29 | 200 | 0.41 | reduction by ascorbic acid (1H and 195Pt NMR) [14]: reduction to its platinum(II) congener
O=C1[O][Pt]2([NH][C@@H]3CCCC[C@H]3[NH]2)[O]C1=O [Oxaliplatin, oxaliplatin] | – | – | – | – | – | – | – | – | – | – | – | – | – | GI50 [15]: 900 ± 200 nM; GI50 (U87 glioblastoma [16]): 1800 ± 200 nM; GI50 (MCF-7 breast [17]): 500 ± 100 nM; GI50 (A2780 ovarian [18]): 160 nM; GI50 (H460 lung [19]): 1600 ± 100 nM; GI50 (A431 skin [20]): 4100 ± 500 nM; GI50 [21]: 2900 ± 400 nM; GI50 (BE2-C neuroblastoma [22]): 900 ± 200 nM; GI50 (SJ-G2 glioblastoma [23]): 3000 ± 1200 nM; GI50 (MIA pancreas [24]): 900 nM; GI50 [25]: 822 ± 130 nM
